Columns and labels:
Test in all cases: PamStation PTK kinomic profiling
Type in all cases: cell-based
FAK2 = target: T1, FAK2 (Homo sapiens, UniProt Q14289); settings: SW480, 45 min, change from DMSO control
T1 construct: cell lysates were prepared; endogenous in cells; host or cells: SW480 and RKO
Description: (§1) SW480 and RKO cells were treated with vehicle (DMSO), JAK/HDACi, regorafenib, and their combination for 45 min, and cell lysates were prepared. Tyrosine kinase (PTK) activity (kinomic) profiling was performed using the PamStation®12 platform (PamGene, BV, The Netherlands). As per standard kinomic protocol as described previously. Whole-chip comparative analysis (BioNavigator Upkin PTK v8.0) was performed between groups generating Mean Kinase Statistics (direction of change).

FGFR1 = settings: change from DMSO control
Description: as §1

FGFR2 = target: T2, FGFR2 (Homo sapiens, UniProt P21802); settings: change from DMSO control
T2 construct: cell lysates were prepared; endogenous in cells; host or cells: SW480 and RKO
Description: as §1

FGFR3 = target: T3, FGFR3 (Homo sapiens, UniProt P22607); settings: change from DMSO control
T3 construct: cell lysates were prepared; endogenous in cells; host or cells: SW480 and RKO
Description: as §1

FGFR4 = target: T4, FGFR4 (Homo sapiens, UniProt P22455); settings: change from DMSO control
T4 construct: cell lysates were prepared; endogenous in cells; host or cells: SW480 and RKO
Description: as §1

FLT1 = target: T5, FLT1 (Homo sapiens, UniProt P17948); settings: change from DMSO control
T5 construct: endogenous in cells; host or cells: SW480 and RKO
Description: as §1

FLT3 = target: T6, FLT3 (Homo sapiens, UniProt P36888); settings: change from DMSO control
T6 construct: we conducted kinome analysis on lysates of SW480 and RKO cells; endogenous in cells; host or cells: SW480 and RKO cells
Description: as §1

FLT4 = target: T7, FLT4 (Homo sapiens, UniProt P35916); settings: change from DMSO control
T7 construct: cell lysates were prepared; endogenous in cells; host or cells: SW480 and RKO
Description: as §1

Fgr = target: T8, Fgr (Homo sapiens, UniProt P09769); settings: change from DMSO control
T8 construct: we conducted kinome analysis on lysates of SW480 and RKO cells; endogenous in cells; host or cells: SW480 and RKO cells
Description: as §1

HER2 = target: T9, HER2 (Homo sapiens, UniProt P04626); settings: change from DMSO control
T9 construct: cell lysates were prepared; endogenous in cells; host or cells: SW480 and RKO
Description: as §1

HER3 = target: T10, HER3 (Homo sapiens, UniProt P21860); settings: change from DMSO control
T10 construct: cell lysates were prepared; endogenous in cells; host or cells: SW480 and RKO
Description: as §1

HER4 = target: T11, HER4 (Homo sapiens, UniProt Q15303); settings: change from DMSO control
T11 construct: we conducted kinome analysis on lysates of SW480 and RKO cells; endogenous in cells; host or cells: SW480 and RKO cells
Description: as §1

IGF1R = target: T12, IGF1R (Homo sapiens, UniProt P08069); settings: change from DMSO control
T12 construct: cell lysates were prepared; endogenous in cells; host or cells: SW480 and RKO
Description: as §1

JAK1~b = target: T13, JAK1~b (Homo sapiens, UniProt P23458); settings: change from DMSO control
T13 construct: cell lysates were prepared; endogenous in cells; host or cells: SW480 and RKO
Description: as §1

JAK2 = target: T14, JAK2 (Homo sapiens, UniProt O60674); settings: change from DMSO control
T14 construct: cell lysates were prepared; endogenous in cells; host or cells: SW480 and RKO
Description: as §1

PDGFR[alpha] = target: T15, PDGFR[alpha] (Homo sapiens, UniProt P16234); settings: change from DMSO control
T15 construct: cell lysates were prepared; endogenous in cells; host or cells: SW480 and RKO
Description: as §1

PDGFR[beta] = target: T16, PDGFR[beta] (Homo sapiens, UniProt P09619); settings: change from DMSO control
T16 construct: cell lysates were prepared; endogenous in cells; host or cells: SW480 and RKO
Description: as §1

Src = target: T17, Src (Homo sapiens, UniProt P12931); settings: change from DMSO control
T17 construct: cell lysates were prepared; endogenous in cells; host or cells: SW480 and RKO
Description: as §1

T8 sequence (P09769 whole entry): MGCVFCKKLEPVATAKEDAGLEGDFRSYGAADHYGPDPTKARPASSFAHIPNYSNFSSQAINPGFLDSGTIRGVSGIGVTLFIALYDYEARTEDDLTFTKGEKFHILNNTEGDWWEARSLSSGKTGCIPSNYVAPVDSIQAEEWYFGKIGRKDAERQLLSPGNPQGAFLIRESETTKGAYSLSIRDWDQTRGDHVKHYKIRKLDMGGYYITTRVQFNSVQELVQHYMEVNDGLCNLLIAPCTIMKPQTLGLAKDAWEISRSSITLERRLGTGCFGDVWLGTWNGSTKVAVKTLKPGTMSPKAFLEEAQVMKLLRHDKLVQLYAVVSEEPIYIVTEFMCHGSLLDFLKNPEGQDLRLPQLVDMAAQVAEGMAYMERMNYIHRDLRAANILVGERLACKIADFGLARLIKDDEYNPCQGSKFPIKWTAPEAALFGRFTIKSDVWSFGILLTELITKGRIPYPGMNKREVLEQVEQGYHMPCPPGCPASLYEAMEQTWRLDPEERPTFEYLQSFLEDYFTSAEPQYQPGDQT
T4 sequence (P22455 22-802): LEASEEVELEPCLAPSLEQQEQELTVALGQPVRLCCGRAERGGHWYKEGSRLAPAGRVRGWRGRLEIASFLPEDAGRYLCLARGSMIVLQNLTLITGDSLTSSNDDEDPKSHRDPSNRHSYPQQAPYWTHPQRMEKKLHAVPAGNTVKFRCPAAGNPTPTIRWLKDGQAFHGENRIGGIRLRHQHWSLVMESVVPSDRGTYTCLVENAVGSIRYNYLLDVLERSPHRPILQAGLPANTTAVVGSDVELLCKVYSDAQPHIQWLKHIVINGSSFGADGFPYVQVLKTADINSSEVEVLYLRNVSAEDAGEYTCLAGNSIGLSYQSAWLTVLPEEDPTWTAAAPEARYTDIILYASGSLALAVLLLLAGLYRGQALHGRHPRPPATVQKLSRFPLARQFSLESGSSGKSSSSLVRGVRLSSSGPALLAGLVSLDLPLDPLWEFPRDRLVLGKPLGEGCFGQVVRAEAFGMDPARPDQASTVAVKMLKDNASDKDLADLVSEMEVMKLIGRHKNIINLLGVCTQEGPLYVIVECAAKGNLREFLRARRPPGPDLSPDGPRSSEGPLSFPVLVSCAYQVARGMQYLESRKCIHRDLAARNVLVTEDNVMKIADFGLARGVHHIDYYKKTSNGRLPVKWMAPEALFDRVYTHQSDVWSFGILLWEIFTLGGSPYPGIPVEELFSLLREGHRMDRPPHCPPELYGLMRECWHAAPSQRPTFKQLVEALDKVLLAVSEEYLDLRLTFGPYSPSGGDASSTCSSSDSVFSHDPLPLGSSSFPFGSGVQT
T12 sequence (P08069 31-1367): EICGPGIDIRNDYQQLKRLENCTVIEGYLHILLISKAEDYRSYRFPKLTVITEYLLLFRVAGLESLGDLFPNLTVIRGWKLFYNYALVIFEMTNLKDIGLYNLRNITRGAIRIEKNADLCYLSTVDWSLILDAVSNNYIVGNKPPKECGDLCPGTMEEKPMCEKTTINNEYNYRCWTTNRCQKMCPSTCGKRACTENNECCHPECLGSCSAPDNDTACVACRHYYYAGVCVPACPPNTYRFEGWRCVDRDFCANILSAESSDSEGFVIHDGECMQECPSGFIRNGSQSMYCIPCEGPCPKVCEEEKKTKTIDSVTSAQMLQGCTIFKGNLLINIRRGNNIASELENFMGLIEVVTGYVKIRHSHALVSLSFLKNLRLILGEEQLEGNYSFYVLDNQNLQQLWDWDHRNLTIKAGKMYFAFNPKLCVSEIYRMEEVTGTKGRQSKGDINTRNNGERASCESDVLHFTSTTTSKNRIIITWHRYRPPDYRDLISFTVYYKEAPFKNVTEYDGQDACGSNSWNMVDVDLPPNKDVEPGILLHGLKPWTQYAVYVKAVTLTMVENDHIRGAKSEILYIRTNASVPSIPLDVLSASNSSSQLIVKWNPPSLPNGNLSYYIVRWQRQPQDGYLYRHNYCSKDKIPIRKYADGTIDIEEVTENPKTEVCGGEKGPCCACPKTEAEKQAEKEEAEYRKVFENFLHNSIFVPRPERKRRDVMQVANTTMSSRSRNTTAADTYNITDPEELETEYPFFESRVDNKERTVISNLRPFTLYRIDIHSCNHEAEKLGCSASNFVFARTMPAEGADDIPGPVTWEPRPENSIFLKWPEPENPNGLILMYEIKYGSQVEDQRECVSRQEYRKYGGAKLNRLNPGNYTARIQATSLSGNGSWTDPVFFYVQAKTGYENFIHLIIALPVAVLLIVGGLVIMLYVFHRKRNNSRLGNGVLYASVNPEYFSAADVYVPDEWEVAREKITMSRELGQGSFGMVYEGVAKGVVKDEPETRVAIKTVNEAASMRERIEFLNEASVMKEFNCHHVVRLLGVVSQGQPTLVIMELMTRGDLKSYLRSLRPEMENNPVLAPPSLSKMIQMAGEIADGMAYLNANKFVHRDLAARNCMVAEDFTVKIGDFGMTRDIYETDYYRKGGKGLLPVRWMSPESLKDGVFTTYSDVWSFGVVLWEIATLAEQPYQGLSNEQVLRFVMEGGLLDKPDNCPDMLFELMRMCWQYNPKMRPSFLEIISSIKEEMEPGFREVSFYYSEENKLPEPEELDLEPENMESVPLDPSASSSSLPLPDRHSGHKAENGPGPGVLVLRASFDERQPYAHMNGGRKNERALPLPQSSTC
T10 sequence (P21860 20-1342): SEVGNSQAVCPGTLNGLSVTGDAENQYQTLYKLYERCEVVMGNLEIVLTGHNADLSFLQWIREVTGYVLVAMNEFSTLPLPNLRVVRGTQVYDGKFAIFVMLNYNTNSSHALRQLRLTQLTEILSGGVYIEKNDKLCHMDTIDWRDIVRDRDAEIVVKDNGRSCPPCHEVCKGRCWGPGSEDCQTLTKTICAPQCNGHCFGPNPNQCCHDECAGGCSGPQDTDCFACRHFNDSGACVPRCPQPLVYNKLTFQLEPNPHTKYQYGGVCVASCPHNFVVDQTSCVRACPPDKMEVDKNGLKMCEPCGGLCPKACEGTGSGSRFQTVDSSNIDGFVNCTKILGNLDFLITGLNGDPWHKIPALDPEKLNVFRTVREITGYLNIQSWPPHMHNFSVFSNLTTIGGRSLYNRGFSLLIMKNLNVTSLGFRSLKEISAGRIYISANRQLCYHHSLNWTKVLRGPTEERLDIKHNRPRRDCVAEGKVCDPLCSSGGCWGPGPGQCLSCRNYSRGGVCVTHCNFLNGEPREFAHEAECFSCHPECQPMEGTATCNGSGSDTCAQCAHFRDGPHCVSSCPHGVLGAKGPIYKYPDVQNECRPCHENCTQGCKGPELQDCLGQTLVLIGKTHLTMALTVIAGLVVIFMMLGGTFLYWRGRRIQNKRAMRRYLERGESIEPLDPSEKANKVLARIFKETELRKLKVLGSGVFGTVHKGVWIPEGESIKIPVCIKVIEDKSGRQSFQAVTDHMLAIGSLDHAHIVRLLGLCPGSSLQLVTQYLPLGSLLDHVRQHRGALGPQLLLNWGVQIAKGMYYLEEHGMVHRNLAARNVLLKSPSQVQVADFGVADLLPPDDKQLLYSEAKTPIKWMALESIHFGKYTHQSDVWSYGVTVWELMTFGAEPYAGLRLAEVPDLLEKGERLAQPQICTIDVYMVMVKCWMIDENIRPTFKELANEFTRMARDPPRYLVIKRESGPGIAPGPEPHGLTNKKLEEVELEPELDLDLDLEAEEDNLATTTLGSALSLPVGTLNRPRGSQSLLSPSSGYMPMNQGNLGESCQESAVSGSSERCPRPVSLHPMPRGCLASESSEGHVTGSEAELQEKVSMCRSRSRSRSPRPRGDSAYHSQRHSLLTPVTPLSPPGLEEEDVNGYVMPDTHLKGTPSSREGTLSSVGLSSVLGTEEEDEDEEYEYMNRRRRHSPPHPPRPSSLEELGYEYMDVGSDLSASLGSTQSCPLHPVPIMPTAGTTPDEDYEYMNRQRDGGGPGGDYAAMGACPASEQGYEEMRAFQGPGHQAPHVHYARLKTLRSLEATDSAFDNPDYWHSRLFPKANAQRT
T14 sequence (O60674 whole entry): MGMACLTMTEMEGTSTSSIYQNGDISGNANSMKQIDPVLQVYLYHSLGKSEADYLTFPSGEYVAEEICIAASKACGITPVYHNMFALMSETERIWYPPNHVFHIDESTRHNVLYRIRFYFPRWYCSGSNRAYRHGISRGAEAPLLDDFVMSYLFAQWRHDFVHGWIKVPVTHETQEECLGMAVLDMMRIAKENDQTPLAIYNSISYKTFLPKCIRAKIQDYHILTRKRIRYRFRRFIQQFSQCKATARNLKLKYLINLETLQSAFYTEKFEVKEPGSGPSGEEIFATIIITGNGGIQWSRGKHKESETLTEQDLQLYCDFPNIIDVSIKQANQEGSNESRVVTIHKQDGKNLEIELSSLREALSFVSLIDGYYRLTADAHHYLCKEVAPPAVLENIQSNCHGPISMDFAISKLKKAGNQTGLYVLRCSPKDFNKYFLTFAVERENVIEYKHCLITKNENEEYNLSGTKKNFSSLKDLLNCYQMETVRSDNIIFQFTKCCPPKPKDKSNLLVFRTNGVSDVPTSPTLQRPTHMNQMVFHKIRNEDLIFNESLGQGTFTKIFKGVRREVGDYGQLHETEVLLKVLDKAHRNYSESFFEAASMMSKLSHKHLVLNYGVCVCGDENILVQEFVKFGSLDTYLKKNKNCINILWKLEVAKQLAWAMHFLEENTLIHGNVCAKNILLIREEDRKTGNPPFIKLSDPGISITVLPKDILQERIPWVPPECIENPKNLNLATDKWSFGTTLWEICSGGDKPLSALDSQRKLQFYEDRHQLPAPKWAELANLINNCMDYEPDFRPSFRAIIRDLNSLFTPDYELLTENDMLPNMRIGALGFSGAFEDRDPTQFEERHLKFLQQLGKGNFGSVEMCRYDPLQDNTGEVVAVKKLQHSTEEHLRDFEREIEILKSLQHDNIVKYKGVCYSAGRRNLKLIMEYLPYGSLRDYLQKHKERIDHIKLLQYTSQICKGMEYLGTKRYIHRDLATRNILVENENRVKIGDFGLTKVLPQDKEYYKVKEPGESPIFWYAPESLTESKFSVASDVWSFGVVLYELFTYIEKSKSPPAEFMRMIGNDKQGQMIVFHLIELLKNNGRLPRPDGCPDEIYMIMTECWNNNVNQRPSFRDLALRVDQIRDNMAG

## CNC(=O)c1cc(Oc2ccc(NC(=O)Nc3ccc(Cl)c(C(F)(F)F)c3)c(F)c2)ccn1 [regorafenib]
FAK2
  Mean Kinase Statistic, FAK2: -0.181
FGFR1; RKO, 45 min
  Mean Kinase Statistic, FGFR1: 0.199
FGFR1; SW480, 45 min
  Mean Kinase Statistic, FGFR1: -0.180
FGFR2; RKO, 45 min
  Mean Kinase Statistic, FGFR2: 0.180
FGFR2; SW480, 45 min
  Mean Kinase Statistic, FGFR2: -0.279
FGFR3; RKO, 45 min
  Mean Kinase Statistic, FGFR3: 0.194
FGFR3; SW480, 45 min
  Mean Kinase Statistic, FGFR3: -0.292
FGFR4; RKO, 45 min
  Mean Kinase Statistic, FGFR4: 0.215
FGFR4; SW480, 45 min
  Mean Kinase Statistic, FGFR4: -0.166
FLT1; RKO, 45 min
  Mean Kinase Statistic, FLT1: 0.207
FLT1; SW480, 45 min
  Mean Kinase Statistic, FLT1: -0.166
FLT3; RKO, 45 min
  Mean Kinase Statistic, FLT3: 0.133
FLT3; SW480, 45 min
  Mean Kinase Statistic, FLT3: -0.243
FLT4; RKO, 45 min
  Mean Kinase Statistic, FLT4: 0.133
FLT4; SW480, 45 min
  Mean Kinase Statistic, FLT4: -0.234
Fgr; RKO, 45 min
  Mean Kinase Statistic, Fgr: -0.272
Fgr; SW480, 45 min
  Mean Kinase Statistic, Fgr: -0.185
HER2; RKO, 45 min
  Mean Kinase Statistic, HER2: 0.090
HER2; SW480, 45 min
  Mean Kinase Statistic, HER2: -0.225
HER3; RKO, 45 min
  Mean Kinase Statistic, HER3: 0.047
HER3; SW480, 45 min
  Mean Kinase Statistic, HER3: -0.158
HER4; RKO, 45 min
  Mean Kinase Statistic, HER4: 0.025
HER4; SW480, 45 min
  Mean Kinase Statistic, HER4: -0.223
IGF1R; RKO, 45 min
  Mean Kinase Statistic, IGF1R: -0.129
IGF1R; SW480, 45 min
  Mean Kinase Statistic, IGF1R: -0.222
JAK1~b; RKO, 45 min
  Mean Kinase Statistic, JAK1~b: 0.393
JAK1~b; SW480, 45 min
  Mean Kinase Statistic, JAK1~b: -0.185
JAK2; RKO, 45 min
  Mean Kinase Statistic, JAK2: 0.236
JAK2; SW480, 45 min
  Mean Kinase Statistic, JAK2: -0.116
PDGFR[alpha]; RKO, 45 min
  Mean Kinase Statistic, PDGFR[alpha]: 0.135
PDGFR[alpha]; SW480, 45 min
  Mean Kinase Statistic, PDGFR[alpha]: -0.175
PDGFR[beta]; RKO, 45 min
  Mean Kinase Statistic, PDGFR[beta]: 0.140
PDGFR[beta]; SW480, 45 min
  Mean Kinase Statistic, PDGFR[beta]: -0.203
Src; RKO, 45 min
  Mean Kinase Statistic, Src: -0.068
Src; SW480, 45 min
  Mean Kinase Statistic, Src: -0.128

Reference: publication PMC11238352, “Combination of dual JAK/HDAC inhibitor with regorafenib synergistically reduces tumor growth, metastasis, and regorafenib-induced toxicity in colorectal cancer” (Journal of Experimental & Clinical Cancer Research : CR, 2024)
